In one experiment the target is T1, human TREX1 (Homo sapiens, UniProt Q9NSU2).
T1 construct: N-terminally His-Tev tagged full length human TREX1; made in house; host or cells: E. coli
T1 sequence (Q9NSU2 1-314): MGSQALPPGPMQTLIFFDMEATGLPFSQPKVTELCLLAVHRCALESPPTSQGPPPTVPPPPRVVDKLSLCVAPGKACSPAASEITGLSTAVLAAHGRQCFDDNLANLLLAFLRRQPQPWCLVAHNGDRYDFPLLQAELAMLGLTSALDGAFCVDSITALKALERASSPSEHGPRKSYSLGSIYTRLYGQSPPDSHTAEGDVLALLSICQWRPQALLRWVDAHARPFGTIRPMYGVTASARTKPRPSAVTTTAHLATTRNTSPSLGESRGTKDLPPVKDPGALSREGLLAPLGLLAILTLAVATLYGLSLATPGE
In words: hTREX1 Biochemical Assay (fluorescence, dsDNA substrate degradation). The conditions noted are these: full length human TREX1, 4 h pre-incubation, 18 h reaction at 25° C. The essentials:
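His-Tev-tagged full-length E. coli-expressed enzyme (4 pM final) preincubated with compound 4 h at 25° C., then 60 nM quenched-fluorophore dsDNA added in Tris pH 7.4, 5 mM MgCl2, 1% DMSO. After 18 h at 25° C., EDTA-quenched; fluorescence 615 nm (ex 570 nm); IC50 from four-parameter fit versus EDTA and no-inhibitor controls.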

Another experiment deals with T2, mouse TREX1 (Mus musculus, UniProt Q91XB0).
T2 construct: N-terminally His-Tev tagged full length mouse TREX1; made in house; host or cells: E. coli
T2 sequence (Q91XB0 1-314): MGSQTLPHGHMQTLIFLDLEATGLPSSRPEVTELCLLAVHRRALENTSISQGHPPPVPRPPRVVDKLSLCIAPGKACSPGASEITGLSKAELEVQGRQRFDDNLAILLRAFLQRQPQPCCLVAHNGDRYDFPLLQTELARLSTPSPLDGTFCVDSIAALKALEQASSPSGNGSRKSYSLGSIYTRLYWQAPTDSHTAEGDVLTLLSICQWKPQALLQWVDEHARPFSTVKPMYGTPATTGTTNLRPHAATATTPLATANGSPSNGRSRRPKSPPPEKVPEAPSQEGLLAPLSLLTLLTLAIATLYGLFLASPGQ
In words: mTREX1 Biochemical Assay (fluorescence, dsDNA substrate degradation). The note with it: full length mouse TREX1, 4 h pre-incubation, 18 h reaction at 25° C. The essentials:
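Full-length His-Tev mouse TREX1 (E. coli) was preincubated with compound 4 h at 25 °C, then run 18 h at 25 °C. Finals were 6 pM enzyme, 60 nM TEX615/quencher dsDNA, 1% DMSO, pH 7.4 Tris with 5 mM MgCl2. After EDTA quench, fluorescence was read at 615 nm; IC50 by four-parameter fit against EDTA and no-inhibitor controls.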

Another experiment has as its target T3, human TREX2 (Homo sapiens, UniProt Q9BQ50).
T3 construct: human TREX2 (residues M44-A279, expressed in E. coli); made in house; host or cells: E. coli
T3 sequence (Q9BQ50 44-279 isoform Q9BQ50-1): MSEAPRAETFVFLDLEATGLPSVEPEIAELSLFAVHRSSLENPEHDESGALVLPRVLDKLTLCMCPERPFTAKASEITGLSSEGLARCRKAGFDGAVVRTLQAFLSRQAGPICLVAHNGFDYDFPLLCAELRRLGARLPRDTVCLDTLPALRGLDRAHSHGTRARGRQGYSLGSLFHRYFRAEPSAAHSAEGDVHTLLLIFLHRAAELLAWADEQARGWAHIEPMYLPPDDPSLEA
In words: hTREX2 Biochemical Assay (selectivity hTREX1 vs hTREX2). The conditions noted are these: biochemical selectivity for hTREX1 vs hTREX2. The method, then:
Degradation of the dsDNA liberates free fluorophore to produce a fluorescent signal. Specifically, 7.5 p L of N-terminally His-Tev tagged human TREX2 (residues M44-A279, expressed in E. coli and purified in house) in reaction buffer (50 mM Tris, 150 mM NaCl, 2 mM DTT, 0.1 mg/mL BSA, 0.01% (w/v) Tween-20, 5 mM MgCl2, pH 7.4) was added to a 384-well Black ProxiPlate Plus (PerkinElmer) which already contained compound (150 nL) at varying concentrations as a 10 point dose-response in DMSO. The plate was incubated at 25° C. for 4 hours. Reactions were initiated by adding 7.5 μL of dsDNA substrate (Strand A: 5′ TEX615/GCT AGG CAG 3′; Strand B: 5′ CTG CCT AGC/IAbRQSp (IDT)) in reaction buffer. Final concentrations were 50 pM TREX2, 60 nM dsDNA substrate in reaction buffer with 1.0% DMSO (v/v). After 18 hours at 25° C., reactions were quenched by the addition of 2 μL of 500 mM EDTA. Final concentrations in the quenched reaction mixture were 44 pM TREX2, 53 nM DNA and 59 mM EDTA in a volume of 17 μL. After a 5-minute incubation at room temperature, plates were read in an EnVision plate reader (PerkinElmer) measuring fluorescence at 615 nm following excitation w/ 570 nm light. IC50 values were calculated by comparing the measured fluorescence at 615 nm relative to control wells pre-quenched w/ stop buffer (100% inhibition) and no inhibitor (0% inhibition) controls as using non-linear least square four parameter fits and either Genedata or GraphPad Prism (GraphPad Software, Inc.).

This is an account of results in patent US20240262814A1, “MODULATORS OF TREX1” (Constellation Pharmaceuticals, Inc., priority 2021, published 2024).

By IC50 is commonly meant the point on the concentration scale where inhibition reaches its midpoint. A lower IC50 goes with greater potency in that assay.

On to `C[C@H](c1nc(C(=O)Nc2cnoc2)c(O)c(=O)n1C)[C@H](c1ccccc1)c1ccccc1C(F)(F)F` (single isomer, unassigned) [Example 14 Isomer 1, 5-Hydroxy-N-(isoxazol-4-yl)-1-methyl-6-oxo-2-(1-phenyl-1-(2-(trifluoromethyl)phenyl)propan-2-yl)-1,6-dihydropyrimidine-4-carboxamide], for which the IC50 was greater than 100 nM on human TREX1 and greater than 10 nM against mouse TREX1. The “hTREX1 vs hTREX2 selectivity” value at human TREX2 is recorded as “A (A = <25 fold selective for hTREX1)”.

As to `C[C@H](c1nc(C(=O)Nc2cnoc2)c(O)c(=O)n1C)[C@H](c1ccccc1)c1ccccc1C(F)(F)F` (single isomer, unassigned) [Example 14 Isomer 4, 5-Hydroxy-N-(isoxazol-4-yl)-1-methyl-6-oxo-2-(1-phenyl-1-(2-(trifluoromethyl)phenyl)propan-2-yl)-1,6-dihydropyrimidine-4-carboxamide], the IC50 against human TREX1 was 1 to 10 nM; on mouse TREX1 it was greater than 10 nM. Moreover, the “hTREX1 vs hTREX2 selectivity” value at human TREX2 is recorded as “B (B = 25 to 50 fold selective for hTREX1)”.

With `C[C@H](c1nc(C(=O)Nc2cnoc2)c(O)c(=O)n1C)C(c1ccccc1Cl)c1ccccc1Cl` (single isomer, unassigned) [Example 15 Isomer 2, 2-(1,1-bis(2-chlorophenyl)propan-2-yl)-5-hydroxy-N-(isooxazol-4-yl)-1-methyl-6-oxo-1,6-dihydropyrimidine-4-carboxamide], the half-maximal inhibitory concentration (IC50) against human TREX1 was greater than 100 nM; against mouse TREX1 it was greater than 10 nM. Further, the “hTREX1 vs hTREX2 selectivity” value at human TREX2 was “A (A = <25 fold selective for hTREX1)”.

In the case of `C[C@H](c1nc(C(=O)Nc2cnoc2)c(O)c(=O)n1C)[C@H](c1ccccc1)c1ccc(C(=O)N(C)C)cc1C#N` (single isomer, unassigned) [Example 16 Isomer 3, 2-(1-(2-cyano-4-(dimethylcarbamoyl)phenyl)-1-phenylpropan-2-yl)-5-hydroxy-N-(isoxazol-4-yl)-1-methyl-6-oxo-1,6-dihydropyrimidine-4-carboxamide], the IC50 at human TREX1 was greater than 100 nM; on mouse TREX1 it was greater than 10 nM. Also, the “hTREX1 vs hTREX2 selectivity” value at human TREX2 is reported as “A (A = <25 fold selective for hTREX1)”.

`C[C@H](c1nc(C(=O)Nc2cnoc2)c(O)c(=O)n1C)[C@H](c1ccccc1)c1ccc(C(=O)N(C)C)cc1C#N` (single isomer, unassigned) [Example 16 Isomer 4, 2-(1-(2-cyano-4-(dimethylcarbamoyl)phenyl)-1-phenylpropan-2-yl)-5-hydroxy-N-(isoxazol-4-yl)-1-methyl-6-oxo-1,6-dihydropyrimidine-4-carboxamide]: the IC50 against human TREX1 and against mouse TREX1 was less than 1 nM each time. For the same compound, the “hTREX1 vs hTREX2 selectivity” value at human TREX2 was “B (B = 25 to 50 fold selective for hTREX1)”.

For `CC(c1nc(C(=O)Nc2cnoc2)c(O)c(=O)n1C)C(c1ccccc1)c1cc(C(=O)N(C)C)ccc1C#N` (single isomer, unassigned) [Example 17 Isomer 1], the IC50 is 10 to 100 nM at human TREX1 and greater than 10 nM on mouse TREX1. Also, the “hTREX1 vs hTREX2 selectivity” value on human TREX2 is reported as “A (A = <25 fold selective for hTREX1)”.

`Cn1c([C@@H](CF)C(c2ccccc2)c2ccccc2)nc(C(=O)Nc2cnoc2)c(O)c1=O` (single isomer, unassigned) [Example 18 Isomer 1, 2-(3-fluoro-1,1-diphenylpropan-2-yl)-5-hydroxy-N-(isoxazol-4-yl)-1-methyl-6-oxo-1,6-dihydropyrimidine-4-carboxamide]: the IC50 at human TREX1 was 10 to 100 nM; against mouse TREX1, greater than 10 nM. For the same compound, the “hTREX1 vs hTREX2 selectivity” value at human TREX2 is reported as “A (A = <25 fold selective for hTREX1)”.

As to `Cn1c([C@H](C(c2ccccc2)c2ccccc2)C(F)(F)F)nc(C(=O)Nc2cnoc2)c(O)c1=O` (single isomer, unassigned) [Example 20 Isomer 2, 5-Hydroxy-N-(isoxazol-4-yl)-1-methyl-6-oxo-2-(1,1,1-trifluoro-3,3-diphenylpropan-2-yl)-1,6-dihydropyrimidine-4-carboxamide], the figures for the IC50 against human TREX1 and against mouse TREX1 were greater than 100 nM and greater than 10 nM, respectively. For the same compound, the “hTREX1 vs hTREX2 selectivity” value at human TREX2 is “A (A = <25 fold selective for hTREX1)”.

`Cn1c([C@@H](C(c2ccccc2C#N)c2ccccc2C#N)C(F)(F)F)nc(C(=O)Nc2cnoc2)c(O)c1=O` (single isomer, unassigned) [Example 21 Isomer 2, 2-(3,3-bis(2-cyanophenyl)-1,1,1-trifluoropropan-2-yl)-5-hydroxy-N-(isoxazol-4-yl)-1-methyl-6-oxo-1,6-dihydropyrimidine-4-carboxamide]: the IC50 against human TREX1 is 10 to 100 nM; on mouse TREX1, greater than 10 nM. For the same compound, the “hTREX1 vs hTREX2 selectivity” value at human TREX2 was “C (C = >50 fold selective for hTREX1)”.

With `Cn1c(C(F)(F)C(c2ccccc2)c2ccccc2)nc(C(=O)Nc2cnoc2)c(O)c1=O` [Example 19, 2-(1,1-difluoro-2,2-diphenylethyl)-5-hydroxy-N-(isoxazol-4-yl)-1-methyl-6-oxo-1,6-dihydropyrimidine-4-carboxamide], the 50% inhibitory concentration (IC50) was 10 to 100 nM against human TREX1 and greater than 10 nM against mouse TREX1. On human TREX2, the “hTREX1 vs hTREX2 selectivity” value is listed as “B (B = 25 to 50 fold selective for hTREX1)”.

Turning to `Cn1c(CC(c2ccccc2)c2ccccc2)nc(C(=O)Nc2cnoc2)c(O)c1=O` [Example A, 2-(2,2-diphenylethyl)-5-hydroxy-N-(isoxazol-4-yl)-1-methyl-6-oxo-1,6-dihydropyrimidine-4-carboxamide], the concentration for half-maximal inhibition (IC50) on human TREX1 is greater than 100 nM; against mouse TREX1, greater than 10 nM. Also, on human TREX2, the “hTREX1 vs hTREX2 selectivity” value is reported as “A (A = <25 fold selective for hTREX1)”.

As for `Cn1c(C(C)(C)C(c2ccccc2)c2ccccc2)nc(C(=O)Nc2cnoc2)c(O)c1=O` [Example B, 5-hydroxy-N-(isoxazol-4-yl)-1-methyl-2-(2-methyl-1,1-diphenylpropan-2-yl)-6-oxo-1,6-dihydropyrimidine-4-carboxamide], the values for the IC50 on human TREX1 and against mouse TREX1 were greater than 100 nM and greater than 10 nM, respectively. At human TREX2, the “hTREX1 vs hTREX2 selectivity” value is on record as “A (A = <25 fold selective for hTREX1)”.
